Key:
Assay type in all cases: cell-based, influenza A virus
[1] = system: M2 S31N mutant influenza virus strain
[2] = system: M2 S31N/G34E mutant influenza virus strain
[3] = system: M2 S31N/L46P mutant influenza virus strain
[4] = system: NA-H274Y mutant influenza virus strain

SMILES | IC50 [1] | IC50 [2] | IC50 [3] | IC50 [4]
NC12CC3CC(CC(C3)C1)C2 [amantadine] | 24.7 µM | > 100 µM | 65.9 µM | –
CCOC(=O)C1=C[C@@H](OC(CC)CC)[C@H](NC(C)=O)[C@@H](N)C1 [oseltamivir] | – | – | – | 2.67 µM

Source: patent US20220202929A1, “DRUG-RESISTANT INFLUENZA VIRUS STRAINS” (President and Fellows of Harvard College, priority 2019, published 2022)
